Laboratory results from patent US5977106A, “3,5-dioxo-(2H,4H)-1,2,4-triazine derivatives” (Pierre Fabre Medicament, priority 1994, dated 1999).
Where a name gives a salt, the structure may show the parent alone. Read-outs that look alike come from different tables or passages of the source.

What was measured:
5-HT1A receptor = molecular target: T1, 5-HT1A receptor (Rattus norvegicus, UniProt P19327); test: biochemical; assay type: binding; details: rat cerebral cortex, [^3 H]8-OH-DPAT 0.2 nM, 23° C., 30 minutes, mean of 3 to 5 experiments; for Ki: read-out: pKi (Affinity for the 5-HT1A receptor) (converted)
T1 sequence (P19327 1-422): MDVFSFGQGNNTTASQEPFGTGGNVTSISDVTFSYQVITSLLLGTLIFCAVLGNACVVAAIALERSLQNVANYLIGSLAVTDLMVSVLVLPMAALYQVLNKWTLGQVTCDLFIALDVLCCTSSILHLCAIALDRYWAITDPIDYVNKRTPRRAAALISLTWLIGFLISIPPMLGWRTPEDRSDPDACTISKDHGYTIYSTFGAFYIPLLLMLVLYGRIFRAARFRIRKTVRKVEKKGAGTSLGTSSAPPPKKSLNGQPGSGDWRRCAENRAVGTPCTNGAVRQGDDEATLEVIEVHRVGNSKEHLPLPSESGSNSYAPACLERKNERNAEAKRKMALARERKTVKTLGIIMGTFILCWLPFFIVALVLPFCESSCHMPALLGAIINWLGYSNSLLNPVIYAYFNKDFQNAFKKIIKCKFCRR

[1] = molecular target: T2, 5-HT1A type serotoninergic receptors (Rattus norvegicus, UniProt P19327); test: 5-HT syndrome in rats (FBP, LLR, FPT); assay type: in vivo; details: ip, male Sprague Dawley rats
T2 construct: carried out in male rats (Sprague Dawley); from tissue; host or cells: living male Sprague Dawley rats (whole animal)
T2 sequence (P19327 1-422): T1 sequence (P19327 1-422)
Protocol: The central activity of the compounds of the invention was evaluated for their capacity to cause the 5-HT syndrome, which is characterized by reciprocal fore-paw treading (FPT), lower-lip retraction (LLR) and flat body posture (FBP).
The experiments for the evaluation of the 5-HT syndrome are carried out in male rats (Sprague Dawley) according to the method described by F.C COLPAERT et al (Drug Dev. Res., 26, 21-48; 1992).

[2] = FBP, read-out: ED50 flat body posture (FBP), 5-HT syndrome
[3] = FPT, read-out: ED50 reciprocal fore-paw treading (FPT), 5-HT syndrome
[4] = LLR, read-out: ED50 lower-lip retraction (LLR), 5-HT syndrome

Compound	Ki (5-HT1A receptor)	further results
COc1ccnc(N2CCN(CCCCn3ncc(=O)n(C)c3=O)CC2)n1 [Compound 28, 4-methyl-2-(4-(4-(4-methoxy-2-pyrimidinyl)piperazino)butyl)-3,5-dioxo-(2H,4H)-1,2,4-triazine]	0.851 nM	–
Cn1c(=O)cnn(CCCCNCC2COc3ccccc3O2)c1=O (stereo not drawn) [Compound 14, 4-methyl-2-(4-(1,4-benzodioxane-2-ylmethylamino)butyl)-3,5-dioxo-(2H,4H)-1,2,4-triazine]	0.269 nM	–
Cc1ccnc(N2CCN(CCCCn3ncc(=O)n(C)c3=O)CC2)n1 [Compound 25]	0.724 nM	–
Cl.Cn1c(=O)cnn(CCCCN2CCN(c3cccc(C(F)(F)F)c3)CC2)c1=O [Compound 3, 4-methyl-2-(4-(4-(3-trifluoromethylphenyl)piperazino)butyl)-3,5-dioxo-(2H,4H)-1,2,4-triazine hydrochloride]	0.24 nM	ED50 [1, 2]: 0.31 mg/kg; ED50 [1, 3]: 0.31 mg/kg; ED50 [1, 4]: 0.08 mg/kg
Cc1nn(CCCCN2CCN(c3cccc(C(F)(F)F)c3)CC2)c(=O)n(C)c1=O [Compound 13, 4,6-dimethyl-2-(4-(4-(3-trifluoromethylphenyl)piperazino)butyl-3,5-dioxo-(2H,4H)-1,2,4-triazine hydrochloride]	2.63 nM	–
CN(CCCCn1ncc(=O)n(C)c1=O)CC1COc2ccccc2O1 (stereo not drawn) [Compound 15, 4-methyl-2-(4-(N-methyl, 1,4-benzodioxan-2-ylmethylamino)butyl)-3,5-dioxo-(2H,4H)-1,2,4-triazine fumarate]	2.82 nM	–
Cn1c(=O)cnn(CCCCN2CCN(c3cc(Cl)cc(Cl)c3)CC2)c1=O [Compound 23, 4-methyl-2-(4-(4-(3,5-dichloro-phenyl)piperazino)butyl)-3,5-dioxo-(2H,4H)-1,2,4-triazine]	0.912 nM	–
Cn1c(=O)cnn(CCCCN2CCN(c3cccc(Cl)c3)CC2)c1=O [Compound 4, 4-methyl-2-(4-(4-(3-chlorophenyl)piperazino)butyl)-3,5-dioxo-(2H,4H)-1,2,4-triazine]	0.269 nM	–
Cc1cc(C)nc(N2CCN(CCCCn3ncc(=O)n(C)c3=O)CC2)n1 [Compound 26, 4-methyl-2-(4-(4-(4,6-dimethyl-2-pyrimidinyl)piperazino)butyl)-3,5-dioxo-(2H,4H)-1,2,4-triazine]	0.646 nM	–
Cn1c(=O)cnn(CCCCN2CCN(c3ncccn3)CC2)c1=O [Compound 9, 4-methyl-2-(4-(4-pyrimidinyl-2)piperazino)butyl-3,5-dioxo-(2H,4H)-1,2,4-triazine]	4.57 nM	ED50 [1, 2]: 0.08 mg/kg; ED50 [1, 3]: 0.31 mg/kg; ED50 [1, 4]: 0.08 mg/kg
4-methyl-2-(4-(4-(4,6-dimethyl-2-pyrimidinyl)piperazino)butyl)-3,5-dioxo-(2H,4H)-1,2,4-triazine [Compound 27]	–	pKi (Affinity for the 5-HT1A receptor) (5-HT1A receptor): 9.23
Cn1c(=O)cnn(CCCCN2CCN(c3nccc(Cl)n3)CC2)c1=O [Compound 24]	0.794 nM	–
Cn1c(=O)cnn(CCCCN2CCN(c3ccc(Cl)c(Cl)c3)CC2)c1=O [Compound 21, 4-methyl-2-(4-(4-(3,4-dichloro-phenyl)piperazino)butyl)-3,5-dioxo-(2H,4H)-1,2,4-triazine]	2.63 nM	–
O=C1CC2(CCCC2)CC(=O)N1CCCCN1CCN(c2ncccn2)CC1 [Buspirone, reference compound]	–	ED50 [1, 3]: > 40 mg/kg
Cn1c(=O)cnn(CCCCN2CCN(c3cccc(Cl)c3Cl)CC2)c1=O [Compound 22, 4-methyl-2-(4-(4-(2,3-dichloro-phenyl)piperazino)butyl)-3,5-dioxo-(2H,4H)-1,2,4-triazine]	0.316 nM	–
Cc1nn(CCCCN2CCN(c3cccc(C(F)(F)F)c3)CC2)c(=O)[nH]c1=O [Compound 12, 6-methyl-2-(4-(4-(3-trifluoromethylphenyl)piperazino)butyl)-3,5-dioxo-(2H,4H)-1,2,4-triazine]	6.46 nM	–
COc1ccccc1N1CCN(CCCCn2ncc(=O)n(C)c2=O)CC1 [Compound 11]	0.132 nM	–
O=c1cnn(CCCCN2CCN(c3cccc(C(F)(F)F)c3)CC2)c(=O)[nH]1 [Compound 1, 2-[4-(4-(3-trifluoromethylphenyl)piperazino)butyl]-3,5-dioxo-(2H,4H)-1,2,4-triazine hydrochloride]	0.55 nM	–
COc1ccc2cccc(N3CCN(CCCCn4ncc(=O)n(C)c4=O)CC3)c2c1 [Compound 10, 4-methyl-2-(4-(4-(7-methoxynaphthalene-1-yl)piperazino)butyl-3,5-dioxo-(2H,4H)-1,2,4-triazine fumarate]	0.0324 nM	ED50 [1, 2]: 0.02 mg/kg; ED50 [1, 3]: 0.02 mg/kg; ED50 [1, 4]: 0.005 mg/kg
Cn1c(=O)cnn(CCCCN2CCN(c3ncccn3)CC2)c1=O [Compound 30, 4-methyl-2-(4-(4-(2-pyrimidinyl)piperazino)butyl)-3,5-dioxo-(2H,4H)-1,2,4-triazine fumarate]	3.31 nM	–
4-methyl-2-(4-(2,3-dihydro-1,4-dioxino-[2,3-b]-pyridin-2-ylmethylamino)butyl)-3,5-dioxo-(2H,4H)-1,2,4-triazine fumarate [Compound 16]	–	pKi (Affinity for the 5-HT1A receptor) (5-HT1A receptor): 9.36
